The values below come from article PMC6163600, “Antihypertensive Effects of Two Novel Angiotensin I-Converting Enzyme (ACE) Inhibitory Peptides from Gracilariopsis lemaneiformis (Rhodophyta) in Spontaneously Hypertensive Rats (SHRs)” (Marine Drugs, 2018).

Where two headings read alike, the source gives them in different places. Non-standard residues stand in square brackets, D forms with d. Residues, ends and D or L forms follow the SMILES beside them. No end group written: not given here. Met(O) = CS(=O)CC[C@H](N)C(=O)O

One series concerns ACE. Set-up: method as in 6 sources, ref 31 = [31]; doi:10.1007/s00217-017-2886-2; 31. Cao D. Lv X. Xu X. Yu H. Sun X. Xu N. Purification and identification of a novel ACE inhibitory peptide from marine alga Gracilariopsis lemaneiformis protein hydrolysate Eur. Food Res. Technol. 20 ||| ref 32, 33 = [32]; doi:10.1016/j.procbio.2017.08.009; 32. Guo M. Chen X. Wu Y. Zhang L. Huang W. Yuan Y. Fang M. Xie J. Wei D. Angiotensin I-converting enzyme inhibitory peptides from Sipuncula ( Phascolosoma esculenta ): Purification, identification, mo || [33]; doi:10.1080/00021369.1987.10868415; 33. Maruyama S. Mitachi H. Awaya J. Kurono M. Tomizuka N. Suzuki H. Angiotensin I-Converting Enzyme Inhibitory Activity of the C-Terminal Hexapeptide of αs1-Casein Agric. Biol. Chem. Tokyo 1987 51 255 ||| ref 7 = [7]; 7. Fujita H. Yokoyama K. Yoshikawa M. Classification and antihypertensive activity of angiotensin I-converting enzyme inhibitory peptides derived from food proteins J. Food Sci. 2000 65 564 569 ||| ref 43 = [43]; PMID 24866326; doi:10.1021/jf501368a; 43. Duan X. Wu F. Li M. Yang N. Wu C. Jin Y. Yang J. Jin Z. Xu X. Naturally occurring angiotensin I-Converting enzyme inhibitory peptide from a fertilized egg and its inhibitory mechanism J. Agric. Fo ||| ref 44 = [44]; doi:10.1016/j.foodres.2012.11.002; 44. Liu X. Zhang M. Jia A. Zhang Y. Zhu H. Zhang C. Sun Z. Liu C. Purification and characterization of angiotensin I converting enzyme inhibitory peptides from jellyfish Rhopilema esculentum Food Res. ||| ... The note with it: cited from earlier work; for Inhibition pattern on ACE: peptides isolated from food stuffs, ref 37 (IFL), 38 (AVKVL), 39 (VELWP).

Series [1] addresses T1, ACE (from rabbit lung) (Oryctolagus cuniculus, UniProt P12822).
T1 construct: ACE (from rabbit lung); purchased Sigma-Aldrich Co. (St. Louis, MO, USA); host or cells: rabbit lung tissue
T1 sequence (P12822 34-1310): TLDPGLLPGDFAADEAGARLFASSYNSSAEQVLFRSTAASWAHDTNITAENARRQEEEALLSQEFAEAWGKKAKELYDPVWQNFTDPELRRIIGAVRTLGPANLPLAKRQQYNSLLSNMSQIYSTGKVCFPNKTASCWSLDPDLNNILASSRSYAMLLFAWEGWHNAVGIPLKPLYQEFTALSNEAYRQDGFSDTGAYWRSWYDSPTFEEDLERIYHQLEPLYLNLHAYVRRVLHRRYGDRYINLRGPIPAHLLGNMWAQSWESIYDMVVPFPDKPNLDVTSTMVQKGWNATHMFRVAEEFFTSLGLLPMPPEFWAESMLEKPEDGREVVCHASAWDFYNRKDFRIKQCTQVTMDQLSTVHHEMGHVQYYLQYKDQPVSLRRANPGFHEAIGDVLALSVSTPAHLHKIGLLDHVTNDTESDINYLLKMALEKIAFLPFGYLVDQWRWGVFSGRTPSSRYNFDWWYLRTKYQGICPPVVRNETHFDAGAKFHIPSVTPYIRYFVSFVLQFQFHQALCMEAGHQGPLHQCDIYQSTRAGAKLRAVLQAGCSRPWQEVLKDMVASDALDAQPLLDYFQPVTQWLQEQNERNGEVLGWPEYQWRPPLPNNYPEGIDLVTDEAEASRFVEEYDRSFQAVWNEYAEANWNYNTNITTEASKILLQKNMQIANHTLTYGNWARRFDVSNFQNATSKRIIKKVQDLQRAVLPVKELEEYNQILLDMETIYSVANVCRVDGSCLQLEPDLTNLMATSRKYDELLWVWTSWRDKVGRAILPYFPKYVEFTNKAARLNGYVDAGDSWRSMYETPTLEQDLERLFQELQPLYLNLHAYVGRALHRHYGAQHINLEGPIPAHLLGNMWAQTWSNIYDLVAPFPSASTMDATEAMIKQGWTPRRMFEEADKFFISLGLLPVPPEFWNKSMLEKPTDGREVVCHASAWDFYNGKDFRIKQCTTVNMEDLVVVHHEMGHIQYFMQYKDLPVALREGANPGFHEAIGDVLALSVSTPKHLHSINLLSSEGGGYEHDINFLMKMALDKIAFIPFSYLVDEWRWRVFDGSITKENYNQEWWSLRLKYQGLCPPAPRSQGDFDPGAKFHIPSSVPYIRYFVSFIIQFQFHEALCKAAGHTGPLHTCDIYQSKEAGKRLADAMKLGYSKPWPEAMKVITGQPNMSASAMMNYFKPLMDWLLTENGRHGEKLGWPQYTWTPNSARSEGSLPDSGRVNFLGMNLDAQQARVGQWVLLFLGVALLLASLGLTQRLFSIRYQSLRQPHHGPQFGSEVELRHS
In words: Determination of inhibitory pattern (Lineweaver-Burk plots). Type of series: biochemical. The settings on record: X-axis intercept of the plot of Lineweaver-Burk slopes against peptide concentration. The procedure:
(§1) ACE (from rabbit lung), hippuryl-histidyl-leucine (HHL), high-performance liquid chromatography (HPLC)-grade acetonitrile (ACN), trifluoroaceticacid (TFA) and porcine pancreatin (8× USP) were purchased from Sigma-Aldrich Co. (St. Louis, MO, USA). Trypsin (EC […], ≥250. N.F.U/mg solid), pepsin (EC 3.4.23.1, ≥250 U/mg solid), and captopril (>99% purity) were obtained from Solarbio (Beijing, China). All other chemical reagents were of analytical grade.
(§2) ACE inhibition activity was assayed according to Cushman and Cheung, with some modification. ACE was dissolved in sodium borate buffer (pH 8.3, containing 0.3 M sodium chloride) to 0.1 U/mL for the assay. Synthetic peptides were dissolved in distilled water to seven concentration levels. Then, 20 μL of a certain concentration of peptide was mixed with 10 μL ACE solution. The mixture was incubated at 37 °C for 5 min, and then 50 μL of 5 mM HHL (sodium borate buffer pH 8.3, containing 0.3 M sodium chloride) was added to the above mixture to start the reaction. […] The absorbance was detected at 228 nm. […] The activity of ACE inhibition was calculated as followed:ACE inhibitory activity (%) = (Acontrol − Ainhibitor)/Acontrol × 100 where Ainhibitor is the relative area of the hippuric acid (HA) peak obtained from the reaction of ACE and HHL with inhibitor. […]

Series [2] concerns the target T1, ACE (from rabbit lung). Put plainly: ACE inhibition activity assay (HHL substrate, hippuric acid by RP-HPLC). It is filed as biochemical. The settings on record: 0.1 U/mL ACE, 5 mM HHL, sodium borate buffer pH 8.3 with 0.3 M NaCl, 37 °C, 60 min; seven peptide concentrations; triplicate, mean ± SD. The procedure: as §1, §2
The target in series [3] is T1, ACE (from rabbit lung). In words: Stability of peptides against ACE. It is filed as in vitro ADME. The note with it: 0.1 mg/mL peptide with 0.1 U/mL ACE, 37 °C, 24 h; read-out ACE inhibitory activity; mean ± SD, n = 3.
Description: as §1
The stability of peptides against ACE was assayed according to Salampessy. J and Fujita. H [48, 49]. 30 μL of peptides (0.1 mg/mL) reacted with 30 μL 0.1 U/mL ACE solution at 37 °C for 24 h. The ACE was then inactivated through boiling the solution for 10 min. Then, 20 μL of peptides were used to detect ACE inhibitory activity in the above method.

For series [4] the following is noted: cited from earlier work. The text has this: Antihypertensive activity of peptides were further evaluated using spontaneously hypertensive rats (SHRs). […] Overall, drugs can exert better antihypertensive effects than hydrolysates and antihypertensive peptides derived from foods. […] Both FQIN [M(O)] CILR and TGAPCR decreased the SBP of SHRs. FQIN [M(O)] CILR and TGAPCR reduced the SBP of SHRs by 34 mmHg and 28 mmHg to the maximum extent, re ...

Series [5] is described as follows: Observed water solubility of the peptide. The settings on record: when the concentration was lower than 10 mg/mL; solubility gradually decreased above 10 mg/mL. Type of series: physicochemical. The text has this: The properties and stabilities of peptides are prerequisites for the preparation of "functional peptides". According to the information in the Innovagen server, FQIN [M(O)] CILR has poor water solubility. […] The hydrophobicity of FQIN [M(O)] CILR is related to the presence of hydrophobic amino acids, such as Phe, Leu, Ile, and Met. The hydrophobicity of FQIN [M(O)] CILR may facilitate the binding of peptides to the hydrophobic active center of ACE, in turn, produce better inhibitory activity.

Series [6] concerns spontaneously hypertensive rats (SHRs). In words: Antihypertensive effect on SHRs (tail-cuff SBP and DBP). It is filed as in vivo, rat. The note with it: positive control, single oral dose 10 mg/kg body weight. The procedure: Spontaneously hypertensive rats (SHRs) (male, 10-week-old, 250–300 g body weight, specific, pathogen-free) were bought from Vital River Laboratory Animal Co., Ltd. (Beijing, China). Animals used in this study were maintained in accordance with the guidelines of the Institutional Research Council’s Guide for the Care and Use of Laboratory Animals. SHRs were housed under 12 h day/night cycle at 22 ± 2 °C and fed with tap water and a standard diet ad libitum. The SHRs were randomly separated into a positive group, control group, and two experiment groups. There were six SHRs in each group. Before the formal start of the test, SHRs had to adapt to measuring the environment in advance. Once the tail systolic blood pressure (SBP) rates were above 180 mmHg, the gavage administration could start.
Normal saline was the solvent to dissolve peptides and control reagent. Captopril (99% purity, Solarbio Technology Co., Ltd., Beijing, China) was the positive group. The same volume of normal saline was the control group. Tail-cuff method was performed for systolic blood pressure (SBP) and diastolic blood pressure (DBP) measurements with a non-invasive CODA device (Kent Scientific Co., Torrington, CT, USA). The blood pressure was measured in 0, 1, 2, 4, 6, 8 h after gavage administration. Measurements were repeated three times at each time point.

[7] abbreviates: reported C-terminal arginine ACE inhibitory peptides, read-out: IC50 (ACE inhibition).
Where [8] appears, read: peptides isolated from jellyfish, read-out: IC50 (ACE inhibition).
Where [9] appears, read: peptide isolated from dried bonito, before pre-incubation with ACE, read-out: IC50 (ACE inhibition).

Take VELWP: the “Inhibition pattern on ACE” value with ACE is “noncompetitive inhibition”.

On to TGAPCR [TGAPCR], for which, on ACE (from rabbit lung) [1], the affinity, expressed as Ki, was 860 ± 60 µM. Moreover, at ACE (from rabbit lung) [2], it took 23.9 ± 0.82 µM to reach half-maximal inhibition (IC50). Further, at ACE (from rabbit lung) [3], the “Stability against ACE hydrolysis (ACE inhibitory activity after incubation with ACE)” value is reported as “stable ACE inhibitors but not substrates of ACE”.

Take YASGR: the IC50 (usually the concentration that inhibits the measured activity by half) with ACE (setting [7]) is 184 µM.

As to HLFGPPGKKDPV, in series [4] (oral dose of 10 mg/kg), the “Greatest SBP drop” value is reported as 30 mmHg. The IC50 in the series on ACE (peptide separated from fertilized eggs, read-out: IC50 (ACE inhibition)) is 125 µM.

For the molecule GDIGY, the “Reduction of SBP” value in series [4] is 20.67 mmHg. The IC50 in the series on ACE (setting [8]) was 32.6 µM.

Consider YIPIQYVLSR, for which, in the series on ACE (setting [7]), the IC50 is 132 µM.

`CC[C@H](C)[C@H](NC(=O)[C@H](CS)NC(=O)[C@H](CC[S+](C)[O-])NC(=O)[C@H](CC(N)=O)NC(=O)[C@@H](NC(=O)[C@H](CCC(N)=O)NC(=O)[C@@H](N)Cc1ccccc1)[C@@H](C)CC)C(=O)N[C@@H](CC(C)C)C(=O)N[C@@H](CCCNC(=N)N)C(=O)O` (stereo partly drawn) [FQIN [M(O)] CILR] (H-FQIN[Met(O)]CILR-OH): the Ki (in general, the equilibrium dissociation constant of an inhibitor or competing ligand from its target) at ACE (from rabbit lung) [1] turned out to be 710 ± 40 µM. In addition, the midpoint of inhibition on ACE (from rabbit lung) [2], the IC50, lay at 9.64 ± 0.36 µM. Besides, the “water solubility found in the authors' study” value in series [5] is listed as “good water solubility”. For the same molecule, the “Stability against ACE hydrolysis (ACE inhibitory activity after incubation with ACE)” value at ACE (from rabbit lung) [3] was “stable ACE inhibitors but not substrates of ACE”.

For LKPNM, the “IC50 after the pre-incubation with ACE, as fraction of the IC50 before” value with ACE (hydrolyzed into LKP and NM) is listed as 1/3. Further, in the series with ACE (setting [9]), the IC50 is 2.4 µM.

Turning to FFGRCVSP, the IC50 with ACE (setting [9]) is 0.4 µM; in the series on ACE (peptide isolated from dried bonito, hydrolyzed by ACE to fragments, read-out: IC50 after hydrolysis by ACE), 4.6 µM.

Consider AVKVL, for which the “Inhibition pattern on ACE” value in the series on ACE is “noncompetitive inhibition”.

For the molecule QPGPT, the “Reduction of SBP” value in series [4] is on record as 13.75 mmHg. For the same molecule, the 50% inhibitory concentration (IC50) in the series with ACE (setting [8]) was 80.7 µM.

With GNGSGYVSR, the IC50 in the series on ACE (setting [7]) was 29 µM.

On to QVEY, for which the concentration for half-maximal inhibition (IC50) with ACE (peptide from trypsin hydrolyzate of G. lemaneiformis, read-out: IC50 (ACE inhibition)) is 474 µM.

For `C[C@H](CS)C(=O)N1CCC[C@H]1C(=O)O` [captopril], the “Antihypertensive effect on SHRs (in words)” value in series [6] was “maximal antihypertensive effect”.
